According to paper PMC12155096 (International Journal of Molecular Sciences, 2025):

target: human CYP2D6 (Homo sapiens, UniProt P10635); test: not given; details: not given
Sequence (P10635 whole entry): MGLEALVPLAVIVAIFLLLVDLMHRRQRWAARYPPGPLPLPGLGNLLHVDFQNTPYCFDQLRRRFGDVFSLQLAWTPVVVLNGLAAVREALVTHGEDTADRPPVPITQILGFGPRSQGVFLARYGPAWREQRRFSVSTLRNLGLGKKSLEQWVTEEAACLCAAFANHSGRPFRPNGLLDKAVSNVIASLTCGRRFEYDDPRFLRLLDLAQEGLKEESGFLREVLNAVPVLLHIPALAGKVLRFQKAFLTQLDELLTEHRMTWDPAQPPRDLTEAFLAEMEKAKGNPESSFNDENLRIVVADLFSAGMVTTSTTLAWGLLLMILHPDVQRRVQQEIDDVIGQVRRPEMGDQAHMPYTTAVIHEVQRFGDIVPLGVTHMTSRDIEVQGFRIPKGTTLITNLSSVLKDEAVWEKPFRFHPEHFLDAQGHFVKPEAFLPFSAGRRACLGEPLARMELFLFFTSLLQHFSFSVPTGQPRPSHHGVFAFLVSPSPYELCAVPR

Row | Compound | CYP2D6 IC50 (half-maximal inhibitory concentration) | CYP2D6 IC50
1 | C=CC(=O)OCCn1c(=O)n(CCOC(=O)C=C)c(=O)n(CCOC(=O)C=C)c1=O | Inactive | –
2 | COC(=O)N(C(=O)N1COC2(C(=O)OC)Cc3cc(Cl)ccc3C2=N1)c1ccc(OC(F)(F)F)cc1 (racemic) [(+-)-Indoxacarb] | Inactive | –
3 | O=C1c2ccccc2C(=O)c2c(Cl)cccc21 [1-Chloroanthraquinone] | Inactive | –
4 | Oc1ccc2ccc3cccc4ccc1c2c34 [1-Hydroxypyrene] | Inactive | –
5 | Brc1ccc(Oc2ccc(Br)cc2Br)c(Br)c1 [2,2'4,4'-Tetrabromodiphenyl ether] | Inactive | –
6 | Nc1ccc2c3c(cccc13)-c1ccccc1-2 [3-Aminofluoranthene] | – | Inactive
7 | Cc1ccc2cc3c(ccc4ccccc43)c3c2c1CC3 [3-Methylcholanthrene] | – | Inactive
8 | Cc1c2ccccc2c(C)c2c1ccc1ccccc12 [7,12-Dimethylbenz(a)anthracene] | – | Inactive
9 | Brc1c2ccccc2cc2ccccc12 [9-Bromoanthracene] | Inactive | –
10 | O=C1c2ccccc2-c2ccccc21 [9-Fluorenone] | Inactive | –
11 | O=C1c2ccccc2Cc2ccccc21 [Anthrone] | Inactive | –

target: T1, CYP3A4 (Homo sapiens, UniProt P08684); test: not given; details: not given
T1 sequence (P08684 whole entry): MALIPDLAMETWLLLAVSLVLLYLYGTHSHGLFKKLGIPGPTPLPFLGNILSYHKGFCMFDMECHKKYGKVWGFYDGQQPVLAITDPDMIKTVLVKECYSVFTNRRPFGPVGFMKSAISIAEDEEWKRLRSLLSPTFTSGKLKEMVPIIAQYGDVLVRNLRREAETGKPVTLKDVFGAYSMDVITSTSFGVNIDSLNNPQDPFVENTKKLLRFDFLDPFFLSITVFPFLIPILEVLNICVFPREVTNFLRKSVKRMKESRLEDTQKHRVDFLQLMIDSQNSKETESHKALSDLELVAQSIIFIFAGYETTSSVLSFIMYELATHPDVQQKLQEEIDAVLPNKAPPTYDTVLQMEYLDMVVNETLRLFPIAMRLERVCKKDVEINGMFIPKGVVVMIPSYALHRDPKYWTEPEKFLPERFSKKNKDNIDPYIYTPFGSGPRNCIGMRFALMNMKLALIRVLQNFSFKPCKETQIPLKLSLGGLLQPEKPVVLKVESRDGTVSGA

Row | Compound | CYP3A4 Efficacy (in parenthesis) | CYP3A4 IC50 (half-maximal inhibitory concentration)
12 | Oc1ccc2ccc3cccc4ccc1c2c34 [1-Hydroxypyrene] | 27.72 ± 10.43 (-84 ± 7) % | –
13 | Brc1ccc(Oc2ccc(Br)cc2Br)c(Br)c1 [2,2'4,4'-Tetrabromodiphenyl ether] | 13.01 ± 6.86 (68 ± 8) % | 13.01 ± 6.86 (68 ± 8) µM
14 | Brc1c2ccccc2cc2ccccc12 [9-Bromoanthracene] | 25.01 ± 9.91 (-59 ± 38) % | –
15 | O=C1c2ccccc2Cc2ccccc21 [Anthrone] | 26.66 ± 4.8 (-63 ± 11) % | –

target: T1, CYP3A4; test: biochemical; details: not given

Row | Compound | IC50 | AC50
16 | C=CC(=O)OCCn1c(=O)n(CCOC(=O)C=C)c(=O)n(CCOC(=O)C=C)c1=O | 0.25 µM | –
17 | O=C1c2ccccc2C(=O)c2c(Cl)cccc21 [1-Chloroanthraquinone] | – | 2.37 µM
18 | O=C1c2ccccc2-c2ccccc21 [9-Fluorenone] | – | 10.4 µM

same assay, conditions: CYP3A4 AC50 (half-maximal activity concentration)

Row | Compound | AC50
19 | Brc1ccc(Oc2ccc(Br)cc2Br)c(Br)c1 [2,2'4,4'-Tetrabromodiphenyl ether] | 13 µM

same assay, conditions: CYP3A4 IC50

Row | Compound | IC50
20 | Nc1ccc2c3c(cccc13)-c1ccccc1-2 [3-Aminofluoranthene] | 19.8 µM
21 | Cc1ccc2cc3c(ccc4ccccc43)c3c2c1CC3 [3-Methylcholanthrene] | 8.02 µM
22 | Cc1c2ccccc2c(C)c2c1ccc1ccccc12 [7,12-Dimethylbenz(a)anthracene] | 22.6 µM

same assay, conditions: CYP3A4 IC50 (half-maximal inhibitory concentration)

Row | Compound | IC50
23 | COC(=O)N(C(=O)N1COC2(C(=O)OC)Cc3cc(Cl)ccc3C2=N1)c1ccc(OC(F)(F)F)cc1 (racemic) [(+-)-Indoxacarb] | 6.03 µM
24 | Oc1ccc2ccc3cccc4ccc1c2c34 [1-Hydroxypyrene] | 27.7 µM
25 | Brc1c2ccccc2cc2ccccc12 [9-Bromoanthracene] | 25 µM
26 | O=C1c2ccccc2Cc2ccccc21 [Anthrone] | 26.7 µM

target: T2, human CYP1A2 (Homo sapiens, UniProt P05177); test: not given; details: not given
T2 sequence (P05177 1-516): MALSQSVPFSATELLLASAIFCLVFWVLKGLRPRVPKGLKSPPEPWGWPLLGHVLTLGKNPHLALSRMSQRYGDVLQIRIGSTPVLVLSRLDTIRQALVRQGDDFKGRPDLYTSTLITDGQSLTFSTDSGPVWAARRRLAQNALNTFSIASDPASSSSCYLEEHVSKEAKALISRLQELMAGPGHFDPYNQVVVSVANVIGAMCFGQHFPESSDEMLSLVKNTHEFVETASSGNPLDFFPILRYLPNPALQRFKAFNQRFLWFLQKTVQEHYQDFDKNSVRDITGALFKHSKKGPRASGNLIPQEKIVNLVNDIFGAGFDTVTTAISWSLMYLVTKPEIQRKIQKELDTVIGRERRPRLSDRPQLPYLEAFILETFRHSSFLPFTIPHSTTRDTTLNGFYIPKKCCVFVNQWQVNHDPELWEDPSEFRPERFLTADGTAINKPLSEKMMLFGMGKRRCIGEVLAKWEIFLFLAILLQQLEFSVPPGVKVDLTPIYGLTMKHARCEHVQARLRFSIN

Row | Compound | CYP1A2 IC50 (half-maximal inhibitory concentration)
27 | COC(=O)N(C(=O)N1COC2(C(=O)OC)Cc3cc(Cl)ccc3C2=N1)c1ccc(OC(F)(F)F)cc1 (racemic) [(+-)-Indoxacarb] | Inactive

same assay, conditions: human

Row | Compound | CYP1A2 Efficacy (in parenthesis)
28 | Oc1ccc2ccc3cccc4ccc1c2c34 [1-Hydroxypyrene] | 0.83 ± 0.11 (-98 ± 1) %
29 | Brc1ccc(Oc2ccc(Br)cc2Br)c(Br)c1 [2,2'4,4'-Tetrabromodiphenyl ether] | 16.84 ± 7.26 (-69 ± 6) %
30 | Brc1c2ccccc2cc2ccccc12 [9-Bromoanthracene] | 0.51 ± 0.11 (-99 ± 4) %
31 | O=C1c2ccccc2Cc2ccccc21 [Anthrone] | 0.44 ± 0.07 (-99 ± 1) %

target: T2, human CYP1A2; test: biochemical; details: not given

Row | Compound | IC50 | AC50
32 | C=CC(=O)OCCn1c(=O)n(CCOC(=O)C=C)c(=O)n(CCOC(=O)C=C)c1=O | 58.1 µM | –
33 | O=C1c2ccccc2C(=O)c2c(Cl)cccc21 [1-Chloroanthraquinone] | 0.05 µM | 0.05 µM
34 | O=C1c2ccccc2-c2ccccc21 [9-Fluorenone] | 0.45 µM | 0.45 µM

same assay, conditions: CYP1A2 AC50 (half-maximal activity concentration)

Row | Compound | AC50
35 | Brc1ccc(Oc2ccc(Br)cc2Br)c(Br)c1 [2,2'4,4'-Tetrabromodiphenyl ether] | 16.8 µM

same assay, conditions: CYP1A2 IC50

Row | Compound | IC50
36 | Nc1ccc2c3c(cccc13)-c1ccccc1-2 [3-Aminofluoranthene] | 0.13 µM
37 | Cc1ccc2cc3c(ccc4ccccc43)c3c2c1CC3 [3-Methylcholanthrene] | 0.39 µM
38 | Cc1c2ccccc2c(C)c2c1ccc1ccccc12 [7,12-Dimethylbenz(a)anthracene] | 0.5 µM

same assay, conditions: CYP1A2 IC50 (half-maximal inhibitory concentration)

Row | Compound | IC50
39 | Oc1ccc2ccc3cccc4ccc1c2c34 [1-Hydroxypyrene] | 0.83 µM
40 | Brc1ccc(Oc2ccc(Br)cc2Br)c(Br)c1 [2,2'4,4'-Tetrabromodiphenyl ether] | 16.8 µM
41 | Brc1c2ccccc2cc2ccccc12 [9-Bromoanthracene] | 0.51 µM
42 | O=C1c2ccccc2Cc2ccccc21 [Anthrone] | 0.44 µM

target: Photinus pyralis (firefly) luciferase (Photinus pyralis, UniProt P08659); test: biochemical; assay type: biochemical; details: not given
Sequence (P08659 whole entry): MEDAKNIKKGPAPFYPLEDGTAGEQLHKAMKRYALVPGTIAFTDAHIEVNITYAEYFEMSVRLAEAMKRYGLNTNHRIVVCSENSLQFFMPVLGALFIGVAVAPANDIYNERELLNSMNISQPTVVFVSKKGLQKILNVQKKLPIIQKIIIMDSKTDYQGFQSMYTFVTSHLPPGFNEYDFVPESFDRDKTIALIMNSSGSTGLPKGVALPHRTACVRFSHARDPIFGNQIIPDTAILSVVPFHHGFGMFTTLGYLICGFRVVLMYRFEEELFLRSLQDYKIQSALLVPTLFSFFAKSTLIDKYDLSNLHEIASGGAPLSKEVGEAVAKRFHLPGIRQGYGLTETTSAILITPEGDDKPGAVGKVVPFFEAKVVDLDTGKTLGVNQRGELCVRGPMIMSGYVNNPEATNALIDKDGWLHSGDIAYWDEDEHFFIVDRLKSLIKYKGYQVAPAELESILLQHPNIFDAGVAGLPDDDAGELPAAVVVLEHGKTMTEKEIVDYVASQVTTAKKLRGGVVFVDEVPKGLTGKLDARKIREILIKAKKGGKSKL

Row | Compound | Luciferase IC50 (half-maximal inhibitory concentration) | IC50
43 | C=CC(=O)OCCn1c(=O)n(CCOC(=O)C=C)c(=O)n(CCOC(=O)C=C)c1=O | Inactive | –
44 | COC(=O)N(C(=O)N1COC2(C(=O)OC)Cc3cc(Cl)ccc3C2=N1)c1ccc(OC(F)(F)F)cc1 (racemic) [(+-)-Indoxacarb] | Inactive | –
45 | O=C1c2ccccc2C(=O)c2c(Cl)cccc21 [1-Chloroanthraquinone] | Inactive | –
46 | Oc1ccc2ccc3cccc4ccc1c2c34 [1-Hydroxypyrene] | – | 68.7 µM
47 | Brc1ccc(Oc2ccc(Br)cc2Br)c(Br)c1 [2,2'4,4'-Tetrabromodiphenyl ether] | – | 44 µM
48 | Nc1ccc2c3c(cccc13)-c1ccccc1-2 [3-Aminofluoranthene] | – | 27.8 µM
49 | Cc1ccc2cc3c(ccc4ccccc43)c3c2c1CC3 [3-Methylcholanthrene] | – | 6.94 µM
50 | Cc1c2ccccc2c(C)c2c1ccc1ccccc12 [7,12-Dimethylbenz(a)anthracene] | – | 32.7 µM
51 | Brc1c2ccccc2cc2ccccc12 [9-Bromoanthracene] | – | 42.3 µM
52 | O=C1c2ccccc2-c2ccccc21 [9-Fluorenone] | – | 67.7 µM
53 | O=C1c2ccccc2Cc2ccccc21 [Anthrone] | Inactive | –

target: T3, human CYP2C9 (Homo sapiens, UniProt P11712); test: not given; details: human
T3 sequence (P11712 whole entry): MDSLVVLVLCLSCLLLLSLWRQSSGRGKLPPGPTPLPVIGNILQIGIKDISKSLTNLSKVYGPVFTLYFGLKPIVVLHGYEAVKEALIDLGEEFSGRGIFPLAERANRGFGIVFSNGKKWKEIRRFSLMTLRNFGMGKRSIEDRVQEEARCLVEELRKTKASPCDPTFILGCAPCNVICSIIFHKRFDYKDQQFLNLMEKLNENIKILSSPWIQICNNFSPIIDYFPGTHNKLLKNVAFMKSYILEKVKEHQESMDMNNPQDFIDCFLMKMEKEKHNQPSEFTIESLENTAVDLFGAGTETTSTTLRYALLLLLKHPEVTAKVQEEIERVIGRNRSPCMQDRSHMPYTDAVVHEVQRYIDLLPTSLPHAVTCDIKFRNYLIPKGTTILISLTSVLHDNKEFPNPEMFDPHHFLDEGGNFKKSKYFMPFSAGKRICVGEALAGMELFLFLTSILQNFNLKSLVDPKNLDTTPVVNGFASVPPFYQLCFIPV

Row | Compound | CYP2C9 Efficacy (in parenthesis)
54 | Oc1ccc2ccc3cccc4ccc1c2c34 [1-Hydroxypyrene] | 35.57 ± 0 (-80 ± 9) %
55 | Brc1c2ccccc2cc2ccccc12 [9-Bromoanthracene] | 34.62 ± 2.26 (-73 ± 9) %
56 | O=C1c2ccccc2Cc2ccccc21 [Anthrone] | 12.58 ± 3.51 (-54 ± 8) %

target: T4, human CYP2C19 (Homo sapiens, UniProt P33261); test: biochemical; details: not given
T4 sequence (P33261 whole entry): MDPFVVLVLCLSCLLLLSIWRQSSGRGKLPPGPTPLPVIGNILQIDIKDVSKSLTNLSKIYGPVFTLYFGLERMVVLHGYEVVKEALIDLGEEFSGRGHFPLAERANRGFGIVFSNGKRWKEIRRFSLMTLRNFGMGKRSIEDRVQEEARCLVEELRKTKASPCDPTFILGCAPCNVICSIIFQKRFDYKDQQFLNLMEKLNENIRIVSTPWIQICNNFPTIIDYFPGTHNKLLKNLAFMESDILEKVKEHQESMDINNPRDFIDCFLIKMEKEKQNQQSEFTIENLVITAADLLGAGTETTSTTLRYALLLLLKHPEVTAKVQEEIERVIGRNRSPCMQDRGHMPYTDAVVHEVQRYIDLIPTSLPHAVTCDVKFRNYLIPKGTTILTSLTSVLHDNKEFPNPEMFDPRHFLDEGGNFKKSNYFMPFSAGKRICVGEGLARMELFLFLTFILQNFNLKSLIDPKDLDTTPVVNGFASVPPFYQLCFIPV

Row | Compound | IC50 | AC50
57 | C=CC(=O)OCCn1c(=O)n(CCOC(=O)C=C)c(=O)n(CCOC(=O)C=C)c1=O | 4.01 µM | –
58 | O=C1c2ccccc2C(=O)c2c(Cl)cccc21 [1-Chloroanthraquinone] | 13.9 µM | 13.9 µM
59 | O=C1c2ccccc2-c2ccccc21 [9-Fluorenone] | 43.8 µM | 43.8 µM

same assay, conditions: CYP2C19 AC50 (half-maximal activity concentration)

Row | Compound | AC50
60 | Brc1ccc(Oc2ccc(Br)cc2Br)c(Br)c1 [2,2'4,4'-Tetrabromodiphenyl ether] | 0.55 µM

same assay, conditions: CYP2C19 IC50

Row | Compound | IC50
61 | Nc1ccc2c3c(cccc13)-c1ccccc1-2 [3-Aminofluoranthene] | 21.2 µM
62 | Cc1ccc2cc3c(ccc4ccccc43)c3c2c1CC3 [3-Methylcholanthrene] | 22.4 µM
63 | Cc1c2ccccc2c(C)c2c1ccc1ccccc12 [7,12-Dimethylbenz(a)anthracene] | 6.09 µM

same assay, conditions: CYP2C19 IC50 (half-maximal inhibitory concentration)

Row | Compound | IC50
64 | COC(=O)N(C(=O)N1COC2(C(=O)OC)Cc3cc(Cl)ccc3C2=N1)c1ccc(OC(F)(F)F)cc1 (racemic) [(+-)-Indoxacarb] | 0.28 µM
65 | Oc1ccc2ccc3cccc4ccc1c2c34 [1-Hydroxypyrene] | 15.7 µM
66 | Brc1ccc(Oc2ccc(Br)cc2Br)c(Br)c1 [2,2'4,4'-Tetrabromodiphenyl ether] | 0.55 µM
67 | Brc1c2ccccc2cc2ccccc12 [9-Bromoanthracene] | 26.3 µM
68 | O=C1c2ccccc2Cc2ccccc21 [Anthrone] | 15.7 µM

target: T3, human CYP2C9; test: biochemical; details: not given

Row | Compound | IC50 | AC50
69 | C=CC(=O)OCCn1c(=O)n(CCOC(=O)C=C)c(=O)n(CCOC(=O)C=C)c1=O | 35.7 µM | –
70 | O=C1c2ccccc2C(=O)c2c(Cl)cccc21 [1-Chloroanthraquinone] | 12.6 µM | 12.6 µM
71 | O=C1c2ccccc2-c2ccccc21 [9-Fluorenone] | 67.7 µM | 67.7 µM

same assay, conditions: CYP2C9 AC50 (half-maximal activity concentration)

Row | Compound | AC50
72 | Brc1ccc(Oc2ccc(Br)cc2Br)c(Br)c1 [2,2'4,4'-Tetrabromodiphenyl ether] | 12.7 µM

same assay, conditions: CYP2C9 IC50

Row | Compound | IC50
73 | Nc1ccc2c3c(cccc13)-c1ccccc1-2 [3-Aminofluoranthene] | 34.7 µM
74 | Cc1ccc2cc3c(ccc4ccccc43)c3c2c1CC3 [3-Methylcholanthrene] | 6.43 µM
75 | Cc1c2ccccc2c(C)c2c1ccc1ccccc12 [7,12-Dimethylbenz(a)anthracene] | 27.3 µM

same assay, conditions: CYP2C9 IC50 (half-maximal inhibitory concentration)

Row | Compound | IC50
76 | COC(=O)N(C(=O)N1COC2(C(=O)OC)Cc3cc(Cl)ccc3C2=N1)c1ccc(OC(F)(F)F)cc1 (racemic) [(+-)-Indoxacarb] | 4.76 µM
77 | Oc1ccc2ccc3cccc4ccc1c2c34 [1-Hydroxypyrene] | 35.6 µM
78 | Brc1c2ccccc2cc2ccccc12 [9-Bromoanthracene] | 34.6 µM
79 | O=C1c2ccccc2Cc2ccccc21 [Anthrone] | 12.6 µM

target: T4, human CYP2C19; test: not given; details: human

Row | Compound | CYP2C19 Efficacy (in parenthesis)
80 | Oc1ccc2ccc3cccc4ccc1c2c34 [1-Hydroxypyrene] | 15.71 ± 4.38 (-129 ± 16) %
81 | Brc1ccc(Oc2ccc(Br)cc2Br)c(Br)c1 [2,2'4,4'-Tetrabromodiphenyl ether] | 0.55 ± 0.43 (-128 ± 5) %
82 | Brc1c2ccccc2cc2ccccc12 [9-Bromoanthracene] | 26.26 ± 8.46 (-125 ± 5) %
83 | O=C1c2ccccc2Cc2ccccc21 [Anthrone] | 15.72 ± 5.91 (-83 ± 4) %
